Assay results as given in patent US20110033938A1, “SYSTEM FOR INDUCIBLE GENE EXPRESSION IN CHLAMYDOMONAS” (priority 2008, published 2011).
Like-named read-outs stand apart in the source and are kept apart here.

Columns and labels:
[1] = test system: Chlamydomonas growth; conditions: for toxicity effects on Chlamydomonas growth: TAP medium; for effect on Chlamydomonas growth rate: all three growth media
Excerpt: (§1) In order to measure quantitatively the transcription of a gene sequence placed under the control of the Cyc6 promoter, we cloned downstream of this promoter the reporter gene cRLuc (Fuhrmann et al., 2004). This gene was also cloned downstream of the strong constitutive PsaD promoter (Fischer e Rochaix, 2001) obtaining the cassettes Cyc6:cRLuc and PsaD:cRLuc (FIG. 1A). Chlamydomonas cells were transformed with these cassettes according to Kindle (1990) and the transformed cells were inoculated in TAP growth medium (Harris, 1989) at a cell density of 10^6 cells/ml. 30 hours later, Ni2+ was added at a final concentration of 25, 50 and 75 μM and Luc activity was measured in the cellular lysates at different times after induction using the Luciferase Assay System (Promega, cat. E2820).
(§2) Ni2+ was added to cells transformed with the construct Cyc6:cRLuc (indicated as “transformed cells” from now on) and grown in TAP, TAP/ENEA1 and TAP/ENEA2 growth media. […] An ideal inducible gene system should be promptly reversible after the addition of an antagonist of the inducer, effective at micromolar concentrations.
(§3) Since the Cyc6 promoter is switched off by Cu2+, the use of chelators specific for that ion can be an alternative method for the reversible induction of this promoter. As an example, FIGS. 4A and 4B show, respectively, the Luc activity and the growth curves of cells transformed with the construct Cyc6:cRLuc grown in TAP/ENEA2 growth medium and induced with the chelators listed in Table 3. […] In the present invention, we propone an alternative method to the Ni2+/EDTA system: activation by Cu chelators, followed by reversion by Cu2+ addition. […] In these experiments, the Cyc6 promoter was induced by 2 μM TETA and repressed by 1 μM Cu2+ (FIG. 4D) and by 5 μM TETA and by 2 μM Cu2+ (FIG. 4E). At 88 hours from TETA addition, the culture in stationary phase was diluted 1:20 and after 30 hours (0 hours of the second cycle) TETA was added at concentrations of 2 (FIG. 4D) e 5 μM (FIG. 4E). At 16 hours Cu2+ was added at the concentration of 1 (FIG. 4D) and 2 μM (FIG. 4E). […] In the system described here, activation and repression of the promoter are obtained respectively by addition of an inducer and its antagonist. In none of the chemically regulated gene expression systems described to date, such an activation followed by repression has been described.
A: Schematic maps of the PsaD:cRLuc and Cyc6:cRLuc constructs B: Schematic maps of the Cyc6:Rb-int-1, Cyc6:Rb-int-2, Cyc6:Rb:int-3 constructs C: Growth curves in TAP medium after addition of different Ni concentrations D: Luc activity driven by PsaD and Cyc6 in TAP medium after addition of different Ni concentrations
A, C, E: Luc activity of Chlamydomonas cells transformed with the Cyc6:cRLuc construct in TAP, TAP/ENEA1 and TAP/ENEA2 growth media in the presence of 25 μM (A), 50 μM (C), 75 μM (E) Ni2+.

[2] = test system: Cyc6 promoter; type: cell-based, Chlamydomonas reinhardtii; conditions: for Luc activity induction relative to PsaD: 75 μM Ni2+
Excerpt: as §1, §2, §3
A, C, E: Luc activity of Chlamydomonas cells transformed with the Cyc6:cRLuc construct in TAP, TAP/ENEA1 and TAP/ENEA2 growth media in the presence of 25 μM (A), 50 μM (C), 75 μM (E) Ni2+. B, D, F: Growth curves of the transformed cells grown in TAP, TAP/ENEA1 and TAP/ENEA2 growth media in the presence of different Ni2+ concentrations, 25 μM (B), 50 μM (D), 75 μM (F) Ni2+. For the composition of the different media, see Table 2.
(§4) A: Luc activity of cells transformed with Cyc6:cRLuc construct induced by the different chelators listed in Table 3 in TAP/ENEA2 growth medium. B: Growth curves in TAP/ENEA2 growth medium in the presence of different Cu-chelators.

[3] = test system: Cyc6 promoter; experiment: Reversibility of Cyc6 promoter induction (Luc activity) after addition of an antagonist (EDTA or Cu2+); type: cell-based, Chlamydomonas reinhardtii
Excerpt: as §3, §4

c1cnc2c(c1)ccc1cccnc12 [1.10 phenanthroline, 1,10-phenanthroline]
toxicity on Chlamydomonas growth ([1]; chelator 10 μM, TAP/ENEA2): toxic

Cc1cc(-c2ccc(S(=O)(=O)O)cc2)c2ccc3c(-c4ccc(S(=O)(=O)O)cc4)cc(C)nc3c2n1 [BCS, bathocuproinedisulfonic acid]
activation of the Cyc6 promoter (Luc activity) ([2]; chelator 10 μM, TAP/ENEA2): able to activate the Cyc6 promoter

[Cu+2] [Cu2+]
effect on Luc activity after TETA induction ([3]; 2 μM Cu2+ added 16 hours after chelator addition, TAP/ENEA2): represses Luc activity | reversion of TETA induction by Cu2+ ([3]; micromolar Cu2+, TAP/ENEA2, FIG. 4C): can be reverted

O=C(O)CN(CCN(CC(=O)O)CC(=O)O)CC(=O)O [EDTA]
reversion of Cyc6 promoter activity (Luc) by EDTA ([3]; EDTA 25, 50 and 150 μM added 16 hours after 25 or 50 μM Ni2+, TAP/ENEA2 and TAP): only partially reverted

Cn1ccnc1CNC1CC(NCc2nccn2C)CC(NCc2nccn2C)C1 (stereo not drawn) [IM, 1,3,5-cis,cis,-triaminocyclohexane-N,N′,N″-tris-(2-methyl-(N-methylimidazole))]
activation of the Cyc6 promoter (Luc activity) ([2]; chelator 10 μM, TAP/ENEA2): able to activate the Cyc6 promoter

[Ni+2] [Ni2+]
toxicity effects on Chlamydomonas growth ([1]; 25 μM Ni2+): does not have toxic effects | toxic effects on growth ([1]; 25 μM Ni2+, all three growth media (TAP, TAP/ENEA1, TAP/ENEA2)): only minor toxic effects | toxicity effects on Chlamydomonas growth ([1]; 50 μM Ni2+): toxicity effects | effect on Chlamydomonas growth rate ([1]; 50 μM Ni2+): evident slowing down of Chlamydomonas growth rate | toxicity effects on Chlamydomonas growth ([1]; 75 μM Ni2+): toxicity effects | effect on Chlamydomonas growth rate ([1]; 75 μM Ni2+): evident slowing down of Chlamydomonas growth rate | Cyc6 promoter activity in TAP, TAP/ENEA1 and TAP/ENEA2 ([2]; 25 μM Ni2+): active only in TAP/ENEA2 growth medium | activation of the Cyc6 promoter ([2]; 25 μM Ni2+, TAP medium): not sufficient to activate the Cyc6 promoter | Cyc6 promoter activity relative to PsaD promoter ([2]; 25 μM Ni2+, TAP/ENEA2): same level of activity as the strong PsaD promoter | increase of Cyc6 promoter activity in TAP/ENEA2 with respect to TAP medium ([2]; 50 μM Ni2+): 25 times | Cyc6 promoter activity relative to PsaD ([2]; 50 μM Ni2+, TAP): 1/10 | Cyc6 promoter activity relative to PsaD ([2]; 50 μM Ni2+, TAP/ENEA1): ½ | Cyc6 promoter activity relative to PsaD ([2]; 50 μM Ni2+, TAP/ENEA2): 2.5 fold more than PsaD | Luc activity induction relative to PsaD ([2]; TAP/ENEA1): about two-fold | Luc activity induction relative to PsaD ([2]; TAP/ENEA2): about two-fold | Luc activity after induction compared to PsaD promoter ([2]; 25, 50 and 75 μM Ni2+, TAP medium): low compared to the Luc activity driven by the PsaD promoter

NCCNCCNCCN [TETA, triethylentetramine]
induction in a second growth cycle [3]: a second induction is obtained | Cyc6 promoter activation in TAP/ENEA2 versus TAP [2]: only in TAP/ENEA2 growth medium | activation of the Cyc6 promoter (Luc activity) [2]: able to activate the Cyc6 promoter | time course of Luc activity after chelator addition [2]: increases steadily until 48 hours
